Drawing on ChEMBL document CHEMBL3132760, “Investigating -secretase protein interactions in live cells using active site-directed clickable dual-photoaffinity probes” (Medchemcomm, 2014), this text covers IC50 for 8 compounds.

Structures are written as SMILES.

Broadly, the IC50 is the concentration that inhibits the measured activity by half.

The assay has as its target Gamma-secretase. Put plainly: Inhibition of gamma-secretase (unknown origin) expressed in CHO cells expressing APP assessed as inhibition of amyloid beta 42 production. In kind it is cell-based, Homo sapiens.

For `C#CCCCCNC(=O)[C@H](Cc1ccccc1)NC(=O)[C@H](CC(C)C)NC(=O)[C@H](Cc1ccccc1)C[C@@H](O)[C@H](Cc1ccccc1)NC(=O)c1ccc(C(=O)c2ccccc2)cc1`, the IC50 was above 1000 nM.
As for `C#CCCCCNC(=O)[C@H](Cc1ccc(C(=O)c2ccccc2)cc1)NC(=O)[C@H](CC(C)C)NC(=O)[C@H](Cc1ccccc1)C[C@@H](O)[C@H](Cc1ccccc1)NC(=O)c1ccc(C(=O)c2ccccc2)cc1`, the 50% inhibitory concentration (IC50) came to 180 nM.
In the case of `C#CCOc1ccc(C(=O)c2ccc(OCCOCCOCCNC(=O)[C@H](Cc3ccccc3)NC(=O)[C@H](CC(C)C)NC(=O)[C@H](Cc3ccccc3)C[C@@H](O)[C@H](Cc3ccccc3)NC(=O)OC(C)(C)C)cc2)cc1`, the IC50 turned out to be 1 nM.
To `C#CCCCC(=O)Nc1ccc(C(=O)c2ccc(NC(=O)COCCOCCOCC(=O)NCCCCCNC(=O)[C@H](Cc3ccccc3)NC(=O)[C@H](CC(C)C)NC(=O)[C@H](Cc3ccccc3)C[C@@H](O)[C@H](Cc3ccccc3)NC(=O)OC(C)(C)C)cc2)cc1` belongs 12 nM; to `C#CCCCC(=O)Nc1ccc(C(=O)c2ccc(NC(=O)COCCOCCOCC(=O)NCCCOCCOCCOCCCNC(=O)[C@H](Cc3ccccc3)NC(=O)[C@H](CC(C)C)NC(=O)[C@H](Cc3ccccc3)C[C@@H](O)[C@H](Cc3ccccc3)NC(=O)OC(C)(C)C)cc2)cc1`, 23 nM; to `C#CCOc1ccc(C(=O)c2ccc(OCCOCCOCCNC(=O)[C@H](Cc3ccc(C(=O)c4ccccc4)cc3)NC(=O)[C@H](CC(C)C)NC(=O)[C@H](Cc3ccccc3)C[C@@H](O)[C@H](Cc3ccccc3)NC(=O)OC(C)(C)C)cc2)cc1`, 1.5 nM.
To `C#CCCCC(=O)Nc1ccc(C(=O)c2ccc(NC(=O)COCCOCCOCC(=O)NCCCCCNC(=O)[C@H](Cc3ccc(C(=O)c4ccccc4)cc3)NC(=O)[C@H](CC(C)C)NC(=O)[C@H](Cc3ccccc3)C[C@@H](O)[C@H](Cc3ccccc3)NC(=O)OC(C)(C)C)cc2)cc1` belongs 33 nM; to `C#CCCCC(=O)Nc1ccc(C(=O)c2ccc(NC(=O)COCCOCCOCC(=O)NCCCOCCOCCOCCCNC(=O)[C@H](Cc3ccc(C(=O)c4ccccc4)cc3)NC(=O)[C@H](CC(C)C)NC(=O)[C@H](Cc3ccccc3)C[C@@H](O)[C@H](Cc3ccccc3)NC(=O)OC(C)(C)C)cc2)cc1`, 20 nM.
